Entries after “also recorded” stand apart in the source; their conditions may differ.
Tests used:
[1] = test system: primary human fibroblasts; assay: caspase 3/7 activity apoptosis assay (ApoTox-Glo) in proliferating and quiescent fibroblasts; type: cell-based; conditions: for apoptosis-inducing effect (caspase-3/7 activity normalized to vehicle): four days treatment
Description: Referring to FIG. 2A, primary human fibroblasts were tested either in a proliferating state or after being induced into quiescence. Quiescence may be induced by either contact inhibition or serum starvation. Cells were treated with DHEA for four days, with bafilomycin added on the fourth day. Apoptosis was assessed based on the activity of caspase 3/7 for a fluorogenic substrate.
PPP inhibition and apoptosis analysis: Apoptosis was measured based on the levels of caspase 3/7 released into the media using the ApoTox-Glo Triplex Assay according to the manufacturer's instructions (Promega Corp., Madison, Wis.). Cells were plated in triplicate at 10,000 cells per well in white-walled, clear-bottom 96-well plates (Costar, Corning Life Sciences, Lowell, Mass.). For contact inhibition, cells were plated 7 days prior to the start of treatment, for serum starvation cells were plated 4 days prior to treatment and switched to 0.1% serum media for the remaining 3 days, while proliferating cells were plated the day prior to the start of treatment. […] Cells in serum starvation conditions were incubated in 0.1% serum during treatment as well. The apoptosis reagent was added at 100 μl per well and incubated for 1 h prior to reading. Luminescence was read from the top using a Synergy-2 plate reader (Biotek, Winooski, Vt.). Luminescence data were normalized to the vehicle only condition.
Apoptosis induction was assessed by monitoring caspase 3/7 activity using a luminescent caspase substrate. This assay is optimized for high-throughput screening in 96-well plates and allows multiple concentrations and combination of drugs to be tested in triplicate at different time points. […] Therefore, this assay was used to compare proliferating and serum-starved cells only.

[2] = test system: four day serum starved fibroblasts; assay: induction of apoptosis in quiescent fibroblasts by DHEA and/or autophagy inhibitor combined with proteasome inhibitors; type: cell-based, human; conditions: DHEA alone; 48 hour treatment
Description: Referring to FIG. 17, the effect of treatment using DHEA and/or an autophagy inhibitor combined with proteasome inhibitors on apoptosis in quiescent cells was analyzed.
In this experiment, the proteasome inhibitor, bortezomib, was used in varying concentrations with DHEA during a 48 hour treatment.

G6PD = molecular target: T1, G6PD (Homo sapiens, UniProt P11413); assay: G6PD activity in fibroblasts treated with DHEA; type: cell-based
T1 construct: endogenous in cells; host or cells: primary human foreskin fibroblasts (proliferating or serum-starved)
Excerpt: Referring to FIGS. 18A and 18B, NADPH production is induced in quiescent fibroblasts. G6PD, PGD and IDH1 are expressed at low levels in proliferating fibroblasts, at higher levels in 7 dCI, 14 dCI and 14 dCI7 dSS fibroblasts, and at even higher levels in 4 dSS and 7 dSS fibroblasts (FIGS. 18A and 18B). Malic enzyme, another protein that generates NADPH but was not predicted to be differentially active in proliferating versus quiescent fibroblasts, was expressed at similar levels in cells in all conditions. The activity of the NADPH-producing enzymes in cytosolic or mitochondrial lysates collected from cells in different proliferative conditions is shown in FIG. 18A. Immunoblotting confirmed successful separation of mitochondrial and cytosolic proteins. Lysates were incubated with the appropriate substrate and the rate of enzymatic activity was determined based on the appearance or disappearance of NADH or NADPH. G6PD had the highest specific activity among the enzymes monitored, consistent with previous reports that it is the most important contributor to NAPDH levels. […] Thus NADPH-generating enzymes in the pentose-phosphate pathway are activated in serum-starved fibroblasts. […]

[3] = test system: extracellular glutathione; assay: glutathione in conditioned medium by mass spectrometry; type: cell-based, human; conditions: 7 dSS fibroblasts; DHEA vs DMSO control
Excerpt: It was expected that the reduction in NADPH levels that resulted from DHEA treatment would result in lower activity of glutathione reductase and thus a decrease in the levels of reduced glutathione. […] The depletion of glutathione in response to DHEA could be an important part of the apoptotic pathway. Alternatively, because apoptosing cells can rapidly and selectively release glutathione to the extracellular environment (van den Dobbelsteen et al., 1996, “Rapid and specific efflux of reduced glutathione during apoptosis induced by anti-Fas/APO-1 antibody,” J Biol Chem 271, 15240-15427; Franco et al., “Glutathione depletion is necessary for apoptosis in lymphoid cells independent of reactive oxygen species,” J Biol Chem 282, 30452-30465, 2007, which are incorporated herein by reference as if fully set forth), the depletion of glutathione could represent a response to a distinct apoptotic trigger. Mass spectrometry was used to measure glutathione levels in conditioned medium from 7 dSS fibroblasts treated with DMSO as a control or with DHEA. There was no increase in extracellular glutathione in conditioned medium from DHEA-treated fibroblasts compared with controls; in fact, levels were lower, consistent with a DHEA-induced reduction in intracellular levels of reduced glutathione. […]

tumor cells = conditions: intraperitoneal injection of tumor cells; cited from earlier work
colon cancer = conditions: in vivo; cited from earlier work
thyroid tumors = conditions: F344 rats treated with DHPN, then DHEA; cited from earlier work
[4] = test system: low-grade cervical lesions; conditions: 12 women with low-grade dysplasia; intravaginal; cited from earlier work

T1 sequence (P11413 whole entry): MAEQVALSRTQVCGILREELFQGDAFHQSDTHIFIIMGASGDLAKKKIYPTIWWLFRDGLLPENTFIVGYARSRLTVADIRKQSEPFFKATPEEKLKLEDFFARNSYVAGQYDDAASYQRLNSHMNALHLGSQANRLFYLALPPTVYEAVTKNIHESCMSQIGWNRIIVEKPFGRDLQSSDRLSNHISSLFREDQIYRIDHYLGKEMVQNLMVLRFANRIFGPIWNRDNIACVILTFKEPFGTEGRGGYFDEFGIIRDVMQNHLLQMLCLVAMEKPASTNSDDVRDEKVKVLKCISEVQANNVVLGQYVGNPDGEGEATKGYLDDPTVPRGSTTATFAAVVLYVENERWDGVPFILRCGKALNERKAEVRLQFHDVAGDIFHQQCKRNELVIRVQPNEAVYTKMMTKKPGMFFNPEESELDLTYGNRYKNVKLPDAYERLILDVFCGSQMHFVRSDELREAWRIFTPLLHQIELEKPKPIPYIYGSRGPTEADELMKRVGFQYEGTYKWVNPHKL

C[C@]12CC[C@H](O)CC1=CC[C@@H]1[C@@H]2CC[C@]2(C)C(=O)CC[C@@H]12 [DHEA, dehydroepiandrosterone]
apoptosis-inducing effect (caspase-3/7 activity normalized to vehicle) ([1]; fibroblasts confluent 11 days (CI11) vs proliferating): significantly stronger; also recorded: statistically significantly different at all doses except 100 μM | apoptosis-inducing effect (caspase-3/7 activity normalized to vehicle) ([1]; fibroblasts serum-starved seven days (SS7) vs proliferating): yet stronger; also recorded: particularly sensitive; also recorded: statistically significantly different at all doses | caspase induction ([1]; treatment with DHEA alone): 6- to 8 fold | increase in apoptosis induction [2]: ~2 fold | G6PD activity (G6PD; proliferating cells treated with DHEA): declined | G6PD activity (G6PD; serum-starved fibroblasts treated with DHEA): significantly declined | extracellular glutathione in conditioned medium [3]: no increase | tumor growth (tumor cells): inhibit tumor growth | effect on colon cancer (colon cancer): chemopreventative effect | basophilic hepatocellular foci (thyroid tumors): associated with development of basophilic hepatocellular foci | development of thyroid tumors (thyroid tumors): decreased development of thyroid tumors | regression of low-grade cervical lesions [4]: may promote regression of low-grade cervical lesions | safety [4]: safe to administer
